Measured values reported in US20230107642A1 (Erasca, Inc., priority 2020, published 2023).

Target: T1, Cys12 of the KRAS 4B G12C protein (Homo sapiens, UniProt P01116, G12C)
T1 construct: This protein contained 188 amino acids in total, including an N-terminal 6-Histidine tag; made in house; host or cells: E. coli BL21
Assay: In vitro covalent adduct formation (CAF) assay, LC-MS intact mass
Format: binding
Details: for % CAF 10 uM @ 60 min: 10 uM compound
Outline: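 GDP-loaded (>95%) His-TEV-tagged KRAS 4B G12C (residues 1–169), 5 μM in TBS pH 7.4, incubated with 10 μM compound (4% DMSO) at 22° C for one hour. Intact-protein LC-MS gave free:adduct ratios, reported as percent protein modified; duplicate runs.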

Row | SMILES | CAF (% binding after 60 min) [%] | other results
1 | C=CC(=O)N1[C@H](C)CN(c2nc(=O)n3c4c(c(-c5cc(Cl)c(F)cc5F)c(C(F)(F)F)cc24)SC[C@@H](N2CCCC2)C3)C[C@@H]1C (atropisomer, axis not shown) [Example 1440, (3S,11S)-8-((3S,5R)-4-acryloyl-3,5-dimethylpiperazin-1-yl)-11-(5-chloro-2,4-difluorophenyl)-3-(pyrrolidin-1-yl) 10-(trifluoromethyl)-3,4-dihydro-[1,4]thiazepino[2,3,4-ij]quinazolin-6-one] |  | % CAF 10 uM @ 60 min (60 min): 51%
2 | C=CC(=O)N1[C@H](C)CN(c2nc(=O)n3c4c(c(-c5cc(Cl)c(F)cc5F)c(C(F)(F)F)cc24)SC[C@@H](N2CCCC2)C3)C[C@@H]1C (atropisomer, axis not shown) [Example 1441, (3S,11R)-8-((3S,5R)-4-acryloyl-3,5-dimethylpiperazin-1-yl)-11-(5-chloro-2,4-difluorophenyl)-3-(pyrrolidin-1-yl) 10-(trifluoromethyl)-3,4-dihydro-2H,6H-[1,4]thiazepino[2,3,4-ij]quinazolin-6-one] |  | % CAF 10 uM @ 60 min (60 min): 79%
3 | C=CC(=O)N1C[C@H](C)N(c2nc(=O)n3c4c(c(-c5cc(Br)c(F)cc5F)c(C(F)(F)F)cc24)SCC2(COC2)C3)C[C@H]1C (atropisomer, axis not shown) [Example 1445, (R)-8′-((2S,5R)-4-Acryloyl-2,5-dimethylpiperazin-1-yl)-11′-(5-bromo-2,4-difluorophenyl)-10′-(trifluoromethyl)-2′H,4′H,6′H-spiro[oxetane-3,3′-[1,4]thiazepino[2,3,4-ij]quinazolin]-6′-one] |  | % CAF 10 uM @ 60 min (60 min): 95%
4 | C=CC(=O)N1C[C@H](C)N(c2nc(=O)n3c4c(c(-c5cc(Br)c(F)cc5F)c(C(F)(F)F)cc24)SCC2(COC2)C3)C[C@H]1C (atropisomer, axis not shown) [Example 1446, (S)-8′-((2S,5R)-4-Acryloyl-2,5-dimethylpiperazin-1-yl)-11′-(5-bromo-2,4-difluorophenyl)-10′-(trifluoromethyl)-2′H,4′H,6′H-spiro[oxetane-3,3′-[1,4]thiazepino[2,3,4-ij]quinazolin]-6′-one] |  | % CAF 10 uM @ 60 min (60 min): 45%
5 | C=CC(=O)N1[C@H](C)CN(c2nc(=O)n3c4c(c(-c5cc(Br)c(F)cc5F)c(C(F)(F)F)cc24)SC[C@@H]3COC)C[C@@H]1C (atropisomer, axis not shown) [Example 1447, (3S,10R)-7-((3S,5R)-4-Acryloyl-3,5-dimethylpiperazin-1-yl)-10-(5-bromo-2,4-difluorophenyl)-3-(methoxymethyl)-9-(trifluoromethyl)-2,3-dihydro-5H-[1,4]thiazino[2,3,4-ij]quinazolin-5-one] |  | % CAF 10 uM @ 60 min (60 min): 97%
6 | C=CC(=O)N1[C@H](C)CN(c2nc(=O)n3c4c(c(-c5cc(Br)c(F)cc5F)c(C(F)(F)F)cc24)SC[C@@H]3COC)C[C@@H]1C (atropisomer, axis not shown) [Example 1448, (3S,10S)-7-((3S,5R)-4-Acryloyl-3,5-dimethylpiperazin-1-yl)-10-(5-bromo-2,4-difluorophenyl)-3-(methoxymethyl)-9-(trifluoromethyl)-2,3-dihydro-5H-[1,4]thiazino[2,3,4-ij]quinazolin-5-one] |  | % CAF 10 uM @ 60 min (60 min): 95%
7 | C=CC(=O)N1C[C@H](C)N(c2nc(=O)n3c4c(c(-c5cc(Cl)c(F)cc5F)c(C(F)(F)F)cc24)SCC2(COC2)C3)C[C@H]1C (single isomer, unassigned) [Example 1120] |  | % CAF 10 uM @ 60 min (60 min incubation): 64.9%
8 | C=CC(=O)N1C[C@H](C)N(c2nc(=O)n3c4c(c(-c5cc(Cl)c(F)cc5F)c(C(F)(F)F)cc24)SCC2(COC2)C3)C[C@H]1C (single isomer, unassigned) [Example 1121] |  | % CAF 10 uM @ 60 min (60 min incubation): 95.5%
9 | C=CC(=O)N1[C@H](C)CN(c2nc(=O)n3c4c(c(-c5cc(Cl)c(F)cc5F)c(C(F)(F)F)cc24)SC[C@@H]3COC)C[C@@H]1C (single isomer, unassigned) [Example 1139] |  | % CAF 10 uM @ 60 min (60 min incubation): 95.9%
10 | C=CC(=O)N1[C@H](C)CN(c2nc(=O)n3c4c(c(-c5cc(Cl)c(F)cc5F)c(C(F)(F)F)cc24)SC[C@@H]3COC)C[C@@H]1C (single isomer, unassigned) [Example 1140] |  | % CAF 10 uM @ 60 min (60 min incubation): 93.9%
11 | C=CC(=O)N1[C@H](C)CN(c2nc(=O)n3c4c(c(-c5ccc(F)cc5F)c(C(F)(F)F)cc24)SC[C@H](N(C)C)C3)C[C@@H]1C [Example 1001, (3R)-8-((3S,5R)-4-acryloyl-3,5-dimethylpiperazin-1-yl)-11-(2,4-difluorophenyl)-3-(dimethylamino)-10-(trifluoromethyl)-3,4-dihydro-2H,6H-[1,4]thiazepino[2,3,4-ij]quinazolin-6-one] | 84 | 
12 | C=CC(=O)N1CCN(c2nc(=O)n3c4c(c(-c5ccc(F)cc5)c(C(F)(F)F)cc24)SC[C@H](O)C3)CC1 [Example 1002, (R)-8-(4-acryloylpiperazin-1-yl)-11-(4-fluorophenyl)-3-hydroxy-10-(trifluoromethyl)-3,4-dihydro-2H,6H-[1,4]thiazepino[2,3,4-ij]quinazolin-6-one] | 97 | 
13 | C=CC(=O)N1[C@H](C)CN(c2nc(=O)n3c4c(c(-c5ccc(F)cc5)c(C(F)(F)F)cc24)SC[C@@H](O)C3)C[C@@H]1C [Example 1003, (S)-8-((3S,5R)-4-acryloyl-3,5-dimethylpiperazin-1-yl)-11-(4-fluorophenyl)-3-hydroxy-10-(trifluoromethyl)-3,4-dihydro-2H,6H-[1,4]thiazepino[2,3,4-ij]quinazolin-6-one] | 95 | 
14 | C=CC(=O)N1CCN(c2nc(=O)n3c4c(c(-c5ccc(F)cc5)c(C(F)(F)F)cc24)SC[C@@H](OCOC)C3)CC1 [Example 1004, (S)-8-(4-acryloylpiperazin-1-yl)-11-(4-fluorophenyl)-3-(methoxymethoxy)-10-(trifluoromethyl)-3,4-dihydro-2H,6H-[1,4]thiazepino[2,3,4-ij]quinazolin-6-one] | 97 | 
15 | C=CC(=O)N1CCN(c2nc(=O)n3c4c(c(-c5ccc(F)cc5)c(C(F)(F)F)cc24)SC[C@H](OCOC)C3)CC1 [Example 1005, (R)-8-(4-acryloylpiperazin-1-yl)-11-(4-fluorophenyl)-3-(methoxymethoxy)-10-(trifluoromethyl)-3,4-dihydro-2H,6H-[1,4]thiazepino[2,3,4-ij]quinazolin-6-one] | 97 | 
16 | C=CC(=O)N1CCN(c2nc(=O)n3c4c(c(-c5ccc(F)c(Cl)c5)c(C(F)(F)F)cc24)SC[C@H](OCOC)C3)CC1 [Example 1006, (R)-8-(4-acryloylpiperazin-1-yl)-11-(3-chloro-4-fluorophenyl)-3-(methoxymethoxy)-10-(trifluoromethyl)-3,4-dihydro-2H,6H-[1,4]thiazepino[2,3,4-ij]quinazolin-6-one] | 90 | 
17 | C=CC(=O)N1CCN(c2nc(=O)n3c4c(c(-c5ccc(F)c(Cl)c5)c(C(F)(F)F)cc24)SC[C@@H](OCOC)C3)CC1 [Example 1007, (S)-8-(4-acryloylpiperazin-1-yl)-11-(3-chloro-4-fluorophenyl)-3-(methoxymethoxy)-10-(trifluoromethyl)-3,4-dihydro-2H,6H-[1,4]thiazepino[2,3,4-ij]quinazolin-6-one] | 97 | 
18 | C=CC(=O)N1CCN(c2nc(=O)n3c4c(c(-c5cc(Cl)c(F)cc5F)c(C(F)(F)F)cc24)SC[C@H](OCOC)C3)CC1 [Example 1008, (3R)-8-(4-acryloylpiperazin-1-yl)-11-(5-chloro-2,4-difluorophenyl)-3-(methoxymethoxy)-10-(trifluoromethyl)-3,4-dihydro-2H,6H-[1,4]thiazepino[2,3,4-ij]quinazolin-6-one] | 92 | 
19 | C=CC(=O)N1[C@H](C)CN(c2nc(=O)n3c4c(c(-c5ccc(F)cc5)c(C(F)(F)F)cc24)SC[C@H](OCOC)C3)C[C@@H]1C [Example 1009, (R)-8-((3S,5R)-4-acryloyl-3,5-dimethylpiperazin-1-yl)-11-(4-fluorophenyl)-3-(methoxymethoxy)-10-(trifluoromethyl)-3,4-dihydro-2H,6H-[1,4]thiazepino[2,3,4-ij]quinazolin-6-one] | 96 | 
20 | C=CC(=O)N1[C@H](C)CN(c2nc(=O)n3c4c(c(-c5ccc(F)cc5)c(C(F)(F)F)cc24)SC[C@@H](OCOC)C3)C[C@@H]1C [Example 1010, (S)-8-((3S,5R)-4-acryloyl-3,5-dimethylpiperazin-1-yl)-11-(4-fluorophenyl)-3-(methoxymethoxy)-10-(trifluoromethyl)-3,4-dihydro-2H,6H-[1,4]thiazepino[2,3,4-ij]quinazolin-6-one] | 96 | 
21 | C=CC(=O)N1[C@H](C)CN(c2nc(=O)n3c4c(c(-c5ccc(F)cc5F)c(C(F)(F)F)cc24)SC[C@H](OCOC)C3)C[C@@H]1C [Example 1011, (3R)-8-((3S,5R)-4-acryloyl-3,5-dimethylpiperazin-1-yl)-11-(2,4-difluorophenyl)-3-(methoxymethoxy)-10-(trifluoromethyl)-3,4-dihydro-2H,6H-[1,4]thiazepino[2,3,4-ij]quinazolin-6-one] | 97 | 
22 | C=CC(=O)N1[C@H](C)CN(c2nc(=O)n3c4c(c(-c5ccc(F)cc5F)c(C(F)(F)F)cc24)SC[C@@H](OCOC)C3)C[C@@H]1C [Example 1012, (3S)-8-((3S,5R)-4-acryloyl-3,5-dimethylpiperazin-1-yl)-11-(2,4-difluorophenyl)-3-(methoxymethoxy)-10-(trifluoromethyl)-3,4-dihydro-2H,6H-[1,4]thiazepino[2,3,4-ij]quinazolin-6-one] | 95 | 
